Among the test systems are Escherichia coli ML-35p; Bacillus megaterium Bm11; Staphylococcus capitis 1; Staphylococcus aureus; Escherichia coli W3110; Escherichia coli UB1005.
What all share (assay): ≥ marks a high value that may be exact or a test limit, other limits are often not marked, values filed in µg/mL are converted to µM
Test [1] deals with Staphylococcus aureus ATCC 25923.
Test [2] relates to Candida albicans ATCC 20032.
For test [3], the system named is Listeria monocytogenes EGD.
Test [4] has as its system Candida albicans ATCC 10231.
In test [5] the test system is Escherichia coli ATCC 25922.
Test [6] relates to Staphylococcus aureus Cowan 1.
Test [7] relates to Yersinia pseudotuberculosis YPIII.
Test [8] has as its system Staphylococcus haemolyticus.
The test system of test [9] is Bacillus subtilis ATCC 6633.
Test [10] deals with Klebsiella pneumoniae ATCC BAA-1705.
In test [11] the test system is Staphylococcus epidermidis C621.
Test [12] concerns Enterococcus faecalis ATCC 29212.
Test [13] concerns Pseudomonas aeruginosa ATCC 27853.
Test [14] relates to Pseudomonas aeruginosa KCTC 1637.
Test [15] has as its system Staphylococcus aureus KCTC 1621.
The test system of test [16] is Escherichia coli KCTC 1682.
The test system of test [17] is Candida albicans TIMM 1768.
Test [18] concerns Trichosporon beigelii KCTC 7707.
The test system of test [19] is Bacillus subtilis KCTC 1918.
In test [20] the test system is Salmonella typhimurium KCTC 1926.

In brackets after ≈: the same amount, converted by molar mass. Several values for one entry are separate records, joined by “and”; a condition that tells them apart may be missing. Equal values may be shown once.

As to `CC[C@H](C)[C@@H]1NC(=O)[C@H](CO)NC(=O)[C@H](CCCCN)NC(=O)[C@H]([C@@H](C)O)NC(=O)[C@H](Cc2c[nH]c3ccccc23)NC(=O)[C@@H](NC(=O)CNC(=O)[C@H](CCCN=C(N)N)NC(=O)[C@H](CC(C)C)NC(=O)[C@H](C)NC(=O)[C@H](C)N)CSSC[C@@H](C(=O)N[C@@H](CO)C(=O)NCC(=O)N[C@@H](CCCCN)C(=O)N[C@@H](CCCN=C(N)N)C(=O)O)NC(=O)[C@@H]2CCCN2C(=O)[C@H](CCCCN)NC(=O)[C@@H]2CCCN2C(=O)[C@@H]2CCCN2C1=O` [AALRGCWTKSIPPKPCSGKR], the minimum inhibitory concentration (MIC) was found to be 5.8 µM (≈ 12.5 µg/mL) in [1] and 23.1 µM (≈ 49.8 µg/mL) in [2].

Take `CC[C@H](C)[C@@H]1NC(=O)[C@H](CCCN=C(N)N)NC(=O)[C@@H]2CSSC[C@@H]3NC(=O)[C@H]([C@@H](C)O)NC(=O)CNC(=O)[C@H](Cc4ccc(O)cc4)NC(=O)[C@H](CCCN=C(N)N)NC(=O)[C@H](CCCN=C(N)N)NC(=O)[C@H](CCC(=O)O)NC(=O)CNC(=O)[C@H](C)NC(=O)[C@H](Cc4ccccc4)NC(=O)[C@H](CSSC[C@H](NC(=O)[C@H](Cc4ccccc4)NC(=O)[C@H](C)NC(=O)[C@H](Cc4c[nH]c5ccccc45)NC(=O)[C@H](C(C)C)NC(=O)[C@H](CCCN=C(N)N)NC(=O)CNC(=O)[C@H](CC(C)C)NC(=O)[C@H](Cc4ccc(O)cc4)NC(=O)[C@H](Cc4ccccc4)NC3=O)C(=O)N[C@H](C(=O)O)CSSC[C@H](NC(=O)[C@H](C)N)C(=O)N[C@@H](Cc3ccc(O)cc3)C(=O)N2)NC(=O)[C@H](C)NC(=O)[C@@H]2CCCN2C1=O` [ACYCRIPACFAGERRYGTCFYLGRVWAFCC]: the MIC against Escherichia coli ML-35p was 2.4 µM and 7.1 µM; in [3] it was 2.2 µM and 1.8 µM.

On to `CC[C@H](C)[C@H](NC(=O)CNC(=O)[C@H](CO)NC(=O)[C@H](CC(C)C)NC(=O)[C@@H](NC(=O)[C@H](CCCN=C(N)N)NC(=O)[C@H](C)NC(=O)[C@@H](NC(=O)[C@H](CC(C)C)NC(=O)[C@@H]1CCCN1C(=O)[C@H](CC(C)C)NC(=O)[C@@H](N)Cc1ccccc1)[C@@H](C)CC)C(C)C)C(=O)N[C@@H](CC(C)C)C(N)=O` [FLPLIARVLSGIL], for which the minimal inhibitory concentration (MIC) in [4] is 2.5 µM (≈ 3.53 µg/mL); against Bacillus megaterium Bm11, 2.5 µM (≈ 3.53 µg/mL); in the test with Staphylococcus capitis 1 it was 5 µM (≈ 7.05 µg/mL); in [5], above 40 µM; in [6], 2.5 µM (≈ 3.53 µg/mL); in test [7], 20 µM (≈ 28.2 µg/mL).

`CC(C)C[C@H](NC(=O)CNC(=O)CNC(=O)[C@H](C)NC(=O)[C@@H](NC(=O)[C@H](CC(N)=O)NC(=O)[C@H](CC(C)C)NC(=O)[C@H](CC(C)C)NC(=O)[C@H](CC(=O)O)NC(=O)[C@@H](NC(=O)[C@@H](NC(=O)[C@@H](NC(=O)CN)C(C)C)C(C)C)[C@@H](C)O)[C@@H](C)O)C(=O)N[C@@H](CC(C)C)C(=O)NCC(=O)N[C@@H](CC(N)=O)C(=O)N[C@@H](CC(C)C)C(=O)N[C@H](C(=O)NCC(=O)N[C@@H](CO)C(=O)N[C@@H](CC(C)C)C(=O)N[C@@H](CO)C(=O)NCC(N)=O)C(C)C` [GVVTDLLNTAGGLLGNLVGSLSG]: the MIC in [8] is at least 400 µM; in the test on Staphylococcus aureus it was 300 µM (≈ 638 µg/mL).

Turning to `CC[C@H](C)[C@H](N)C(=O)N[C@@H](CC(C)C)C(=O)NCC(=O)N1CCC[C@H]1C(=O)N[C@H](C(=O)N[C@H](C(=O)N[C@@H](CO)C(=O)N[C@H](C(=O)N[C@H](C(=O)NCC(=O)N[C@@H](CC(N)=O)C(=O)N[C@@H](C)C(=O)N[C@@H](CC(C)C)C(=O)NCC(=O)NCC(=O)N[C@@H](CC(C)C)C(=O)N[C@@H](CC(C)C)C(=O)N[C@@H](CCCCN)C(=O)N[C@@H](CC(N)=O)C(=O)N[C@@H](CC(C)C)C(N)=O)[C@@H](C)CC)[C@@H](C)O)[C@@H](C)CC)C(C)C` [ILGPVISTIGNALGGLLKNL], the MIC in [1] is above 50.9 µM; in test [2] it was at least 50.9 µM; in test [5], above 50.9 µM; in test [9], at least 50.9 µM.

`CC[C@H](C)[C@H](N)C(=O)N[C@@H](CC(C)C)C(=O)NCC(=O)N1CCC[C@H]1C(=O)N[C@H](C(=O)N[C@@H](CC(C)C)C(=O)NCC(=O)N[C@@H](CC(C)C)C(=O)N[C@H](C(=O)N[C@@H](CO)C(=O)N[C@@H](CC(N)=O)C(=O)N[C@@H](C)C(=O)N[C@@H](CC(C)C)C(=O)NCC(=O)NCC(=O)N[C@@H](CC(C)C)C(=O)N[C@@H](CC(C)C)C(N)=O)C(C)C)C(C)C` [ILGPVLGLVSNALGGLL]: the minimal inhibitory concentration (MIC) in test [1] is above 62.3 µM; in [2] it was at least 62.3 µM; in [5], above 62.3 µM; in test [9] it was at least 62.3 µM.

On to `CC[C@H](C)[C@H](N)C(=O)N[C@@H](Cc1c[nH]c2ccccc12)C(=O)N[C@@H](Cc1c[nH]c2ccccc12)C(=O)N[C@@H](C)C(=O)N[C@@H](CCCCN)C(=O)N[C@@H](CC(C)C)C(=O)NCC(=O)N[C@@H](CC(C)C)C(=O)N[C@@H](CCCCN)C(=O)N[C@@H](CC(C)C)C(=O)N[C@@H](CC(C)C)C(=O)N[C@@H](CCCN=C(N)N)C(=O)N[C@@H](Cc1ccc(O)cc1)C(=O)N[C@@H](CCCN=C(N)N)C(=O)N[C@@H](CCCN=C(N)N)C(=O)N[C@@H](Cc1c[nH]c2ccccc12)C(=O)N[C@@H](Cc1ccc(O)cc1)C(=O)O` [IWWAKLGLKLLRYRRWY], for which the MIC was 2 µM (≈ 4.64 µg/mL) in the test with Escherichia coli W3110 and 4 µM (≈ 9.29 µg/mL) in test [10].

For the compound `CC[C@H](C)[C@H](N)C(=O)N[C@@H](Cc1c[nH]c2ccccc12)C(=O)N[C@@H](Cc1c[nH]c2ccccc12)C(=O)N[C@@H](C)C(=O)N[C@@H](CCCCN)C(=O)N[C@@H](Cc1c[nH]c2ccccc12)C(=O)NCC(=O)N[C@@H](CC(C)C)C(=O)N[C@@H](CCCCN)C(=O)N[C@@H](CC(C)C)C(=O)N[C@@H](CC(C)C)C(=O)N[C@@H](CCCN=C(N)N)C(=O)N[C@@H](Cc1ccc(O)cc1)C(=O)N[C@@H](CCCN=C(N)N)C(=O)N[C@@H](CCCN=C(N)N)C(=O)N[C@H](C(=O)N[C@@H](Cc1c[nH]c2ccccc12)C(=O)O)[C@@H](C)CC` [IWWAKWGLKLLRYRRIW], the minimum inhibitory concentration (MIC) is 4 µM (≈ 9.38 µg/mL) against Escherichia coli W3110 and at least 32 µM in test [10].

With `C[C@H](NC(=O)[C@H](C)NC(=O)[C@H](C)NC(=O)[C@H](CCCCN)NC(=O)[C@@H](N)CCCCN)C(=O)N[C@@H](C)C(=O)N[C@@H](Cc1ccccc1)C(=O)N[C@@H](C)C(=O)N[C@@H](C)C(=O)N[C@@H](Cc1ccccc1)C(=O)N[C@@H](C)C(=O)N[C@@H](C)C(=O)N[C@@H](Cc1c[nH]c2ccccc12)C(=O)N[C@@H](Cc1ccccc1)C(=O)N[C@@H](C)C(=O)N[C@@H](C)C(=O)N[C@@H](Cc1ccccc1)C(=O)N[C@@H](C)C(=O)N[C@@H](C)C(=O)N[C@@H](C)C(=O)N[C@@H](C)C(=O)N[C@@H](CCCCN)C(=O)N[C@@H](CCCCN)C(=O)N[C@@H](CCCCN)C(=O)N[C@@H](CCCCN)C(N)=O` [KKAAAAFAAFAAWFAAFAAAAKKKK], the MIC in test [11] was 4 µM (≈ 10.2 µg/mL); in test [12] it was above 32 µM; in test [13], 8 µM (≈ 20.4 µg/mL); in test [1], 32 µM (≈ 81.8 µg/mL); in the test with Escherichia coli UB1005, 8 µM (≈ 20.4 µg/mL); in test [5], 16 µM (≈ 40.9 µg/mL). For the same compound, in [9], the minimal inhibitory concentration (MIC) was 2 µM (≈ 5.11 µg/mL).

Take `CC(C)C[C@H](NC(=O)[C@H](CCCCN)NC(=O)[C@H](CCCCN)NC(=O)[C@H](CC(C)C)NC(=O)[C@H](CC(C)C)NC(=O)[C@H](CCCCN)NC(=O)[C@H](CCCCN)NC(=O)[C@H](CC(C)C)NC(=O)[C@H](CC(C)C)NC(=O)[C@@H]1CCCN1C(=O)[C@H](CCCCN)NC(=O)[C@H](CCCCN)NC(=O)[C@H](Cc1c[nH]c2ccccc12)NC(=O)[C@@H](N)CCCCN)C(N)=O` [KWKKPLLKKLLKKL]: the MIC is 3.12 µM (≈ 5.5 µg/mL) in [14]; 6.25 µM (≈ 11 µg/mL) in test [15]; 6.25 µM (≈ 11 µg/mL) in [16]; 12.5 µM (≈ 22 µg/mL) in [17]; 1.56 µM (≈ 2.75 µg/mL) in [18]; 3.12 µM (≈ 5.5 µg/mL) in test [19]. The compound also registered a minimal inhibitory concentration (MIC) in test [20] of 1.56 µM (≈ 2.75 µg/mL).

A word on the MIC: it is the lowest concentration found to suppress growth. A higher MIC goes with a need for much substance.

Values taken from DBAASP.
